Data: the supplement of paper PMC10307832

Assays:
Assay in all cases: relative viability (nuclei count vs DMSO), 5 days (fraction); higher = more cells survive
201T = test system: 201T
Method in brief: (§1)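 Lung cancer cell lines were seeded in 1536-well plates and dosed by pin tool the next day, with either a single drug or a fixed anchor-drug dose combined with five library-drug doses (not always all listed) spaced in √10 steps. Five days later, one step fixed the cells and stained their nuclei (final 0.05% Triton X-100, 1% formaldehyde, 1 ug/ml Hoechst), and nuclei were counted on 4× images. Relative viability is the nuclei count in treated wells divided by the count in vehicle wells, and each value is the median of duplicate plates.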

BEN = test system: BEN
Method in brief: as §1

CAL-12T = test system: CAL-12T
Method in brief: as §1

COR-L 105 = test system: COR-L 105
Method in brief: as §1

H3255 = test system: H3255
Method in brief: as §1

HARA = test system: HARA
Method in brief: as §1

HCC-15 = test system: HCC-15
Method in brief: as §1

HCC-827 = test system: HCC-827
Method in brief: as §1

LC-2-ad = test system: LC-2-ad
Method in brief: as §1

LK-2 = test system: LK-2
Method in brief: as §1

LU99A = test system: LU99A
Method in brief: as §1

LXF-289 = test system: LXF-289
Method in brief: as §1

NCI-H1437 = test system: NCI-H1437
Method in brief: as §1

NCI-H1650 = test system: NCI-H1650
Method in brief: as §1

NCI-H1651 = test system: NCI-H1651
Method in brief: as §1

NCI-H1792 = test system: NCI-H1792
Method in brief: as §1

NCI-H2085 = test system: NCI-H2085
Method in brief: as §1

NCI-H2228 = test system: NCI-H2228
Method in brief: as §1

NCI-H23 = test system: NCI-H23
Method in brief: as §1

NCI-H2405 = test system: NCI-H2405
Method in brief: as §1

NCI-H322M = test system: NCI-H322M
Method in brief: as §1

RERF-LC-KJ = test system: RERF-LC-KJ
Method in brief: as §1

UMC-11 = test system: UMC-11
Method in brief: as §1

**Q.** Which results are given for `CCCCCCCCCCCC1=C(O)C(=O)C=C(O)C1=O` [Embelin] + CC1(C)CCC(c2ccc(Cl)cc2)=C(CN2CCN(c3ccc(C(=O)NS(=O)(=O)c4ccc(N[C@H](CCN5CCOCC5)CSc5ccccc5)c(S(=O)(=O)C(F)(F)F)c4)cc3)CC2)C1 [Navitoclax] (partner 0.5 µM)?
**A.** relative viability (201T; first compound 0.08 µM): 1.18; relative viability (201T; first compound 0.8 µM): 1.19; relative viability (201T; first compound 2.53 µM): 1.19; relative viability (201T; first compound 8 µM): 1.17; relative viability (BEN; first compound 0.08 µM): 0.0728; relative viability (BEN; first compound 0.8 µM): 0.0709; relative viability (BEN; first compound 2.53 µM): 0.0714; relative viability (BEN; first compound 8 µM): 0.0735; relative viability (CAL-12T; first compound 0.08 µM): 1.12; relative viability (CAL-12T; first compound 0.8 µM): 1.41; relative viability (CAL-12T; first compound 2.53 µM): 1.23; relative viability (CAL-12T; first compound 8 µM): 1.24; relative viability (COR-L 105; first compound 0.08 µM): 0.758; relative viability (COR-L 105; first compound 0.8 µM): 1.04; relative viability (COR-L 105; first compound 2.53 µM): 0.748; relative viability (COR-L 105; first compound 8 µM): 0.795; relative viability (H3255; first compound 0.08 µM): 0.516; relative viability (H3255; first compound 0.8 µM): 0.674; relative viability (H3255; first compound 2.53 µM): 0.551; relative viability (H3255; first compound 8 µM): 0.599; relative viability (HARA; first compound 0.08 µM): 1.12; relative viability (HARA; first compound 0.8 µM): 1.2; relative viability (HARA; first compound 2.53 µM): 1.12; relative viability (HARA; first compound 8 µM): 1.13; relative viability (HCC-15; first compound 0.08 µM): 0.659; relative viability (HCC-15; first compound 0.8 µM): 0.773; relative viability (HCC-15; first compound 2.53 µM): 0.718; relative viability (HCC-15; first compound 8 µM): 0.693; relative viability (HCC-827; first compound 0.08 µM): 1; relative viability (HCC-827; first compound 0.8 µM): 1.09; relative viability (HCC-827; first compound 2.53 µM): 1.03; relative viability (HCC-827; first compound 8 µM): 1.04; relative viability (LC-2-ad; first compound 0.08 µM): 0.406; relative viability (LC-2-ad; first compound 0.8 µM): 0.625; relative viability (LC-2-ad; first compound 2.53 µM): 0.451; relative viability (LC-2-ad; first compound 8 µM): 0.51; relative viability (LK-2; first compound 0.08 µM): 0.904; relative viability (LK-2; first compound 0.8 µM): 1.2; relative viability (LK-2; first compound 2.53 µM): 1.26; relative viability (LK-2; first compound 8 µM): 0.809; relative viability (LU99A; first compound 0.08 µM): 0.993; relative viability (LU99A; first compound 0.8 µM): 0.943; relative viability (LU99A; first compound 2.53 µM): 0.864; relative viability (LU99A; first compound 8 µM): 0.755; relative viability (LXF-289; first compound 0.08 µM): 1.01; relative viability (LXF-289; first compound 0.8 µM): 0.959; relative viability (LXF-289; first compound 2.53 µM): 1.03; relative viability (LXF-289; first compound 8 µM): 0.953; relative viability (NCI-H1437; first compound 0.08 µM): 1.07; relative viability (NCI-H1437; first compound 0.8 µM): 1.14; relative viability (NCI-H1437; first compound 2.53 µM): 1.11; relative viability (NCI-H1437; first compound 8 µM): 0.707; relative viability (NCI-H1650; first compound 0.08 µM): 1.27; relative viability (NCI-H1650; first compound 0.8 µM): 1.37; relative viability (NCI-H1650; first compound 2.53 µM): 1.57; relative viability (NCI-H1650; first compound 8 µM): 1.36; relative viability (NCI-H1651; first compound 0.08 µM): 0.926; relative viability (NCI-H1651; first compound 0.8 µM): 1.19; relative viability (NCI-H1651; first compound 2.53 µM): 1.02; relative viability (NCI-H1651; first compound 8 µM): 1.09; relative viability (NCI-H1792; first compound 0.08 µM): 0.593; relative viability (NCI-H1792; first compound 0.8 µM): 0.649; relative viability (NCI-H1792; first compound 2.53 µM): 0.892; relative viability (NCI-H1792; first compound 8 µM): 0.669; relative viability (NCI-H2085; first compound 0.08 µM): 1.09; relative viability (NCI-H2085; first compound 0.8 µM): 1.31; relative viability (NCI-H2085; first compound 2.53 µM): 1.2; relative viability (NCI-H2085; first compound 8 µM): 1; relative viability (NCI-H2228; first compound 0.08 µM): 0.793; relative viability (NCI-H2228; first compound 0.8 µM): 0.955; relative viability (NCI-H2228; first compound 2.53 µM): 1.28; relative viability (NCI-H2228; first compound 8 µM): 0.604; relative viability (NCI-H23; first compound 0.08 µM): 0.848; relative viability (NCI-H23; first compound 0.8 µM): 0.904; relative viability (NCI-H23; first compound 2.53 µM): 0.884; relative viability (NCI-H23; first compound 8 µM): 0.74; relative viability (NCI-H2405; first compound 0.08 µM): 0.986; relative viability (NCI-H2405; first compound 0.8 µM): 1.41; relative viability (NCI-H2405; first compound 2.53 µM): 0.875; relative viability (NCI-H2405; first compound 8 µM): 0.906; relative viability (NCI-H322M; first compound 0.08 µM): 1.1; relative viability (NCI-H322M; first compound 0.8 µM): 1.37; relative viability (NCI-H322M; first compound 2.53 µM): 1.48; relative viability (NCI-H322M; first compound 8 µM): 1.12; relative viability (RERF-LC-KJ; first compound 0.08 µM): 0.963; relative viability (RERF-LC-KJ; first compound 0.8 µM): 1.14; relative viability (RERF-LC-KJ; first compound 2.53 µM): 0.808; relative viability (RERF-LC-KJ; first compound 8 µM): 0.821; relative viability (UMC-11; first compound 0.08 µM): 0.328; relative viability (UMC-11; first compound 0.8 µM): 0.32; relative viability (UMC-11; first compound 2.53 µM): 0.319; relative viability (UMC-11; first compound 8 µM): 0.289
